For series [1], the target named is T1, purified human hemoglobin (Homo sapiens, UniProt P68871).
T1 construct: For experiments with purified hemoglobin, hemoglobin (20 μM as tetramer) was dissolved in DPBS
As to the kind of experiment: Oxygen dissociation curve (ODC) of purified hemoglobin, Hemox analyzer, P50. The format is biochemical. To be noted: for P50 with purified hemoglobin: hemoglobin 20 μM, tested compound 120 μM, purified hemoglobin alone 17 Torr. As for the experimental part: (§1) The ODC of hemoglobin was measured with a Hemox analyzer (TCS Scientific Corporation) at 37° C. For experiments with purified hemoglobin, hemoglobin (20 μM as tetramer) was dissolved in DPBS and antifoam (0.2 vol %, Catalog No. AFA-25, TCS Scientific Corporation) was added to prevent foaming of the sample. Compounds were prepared in DMSO stock solutions then added to hemoglobin. The final concentration of DMSO was adjusted to 5 vol %. For experiments with RBCs, blood was drawn from volunteers into EDTA tubes. The blood was centrifuged for 15 min at 3,000 rpm at 4° C. The supernatant was discarded, and RBCs were washed three times with DPBS, pH 7.4 by dilution to 50% hematocrit. The washed RBCs were then diluted with Hemox solution (mixture of N-[Tris(hydroxymethyl)methyl]-2-aminoethanesulfonic acid (TES, 30 mM), sodium chloride (135 mM), and potassium chloride (5 mM) in water (pH 7.4), TCS Scientific Corporation), and mixed with the test compound stock solutions. When known allosteric effectors NEM (400 μM), 5HMF (2 mM) or formamidine disulfide (400 μM) were mixed with RBCs (20 μM as hemoglobin tetramer) for 1 h at 37° C., P50 was reduced to 8 Torr, 9 Torr, and 9 Torr respectively, which correlated with previous reports (see Garel et al., European Journal of Biochemistry, 1982, 123, 513-519). Data was analyzed by two-tailed, unpaired Student's t test using Microsoft Excel 2007.
A saturating effect on P50 was first determined by adding an increasing concentration of 2,3-DPG and IHP. No increase of P50 of hemoglobin was observed after an addition of a 30-fold molar excess of 2,3-DPG or IHP to hemoglobin. Hemoglobin (20 μM as tetramer) was pre-incubated with either 2,3-DPG (600 μM) or IHP (600 μM) followed by addition of Compound 1 (0, 50, 100, 150 and 200 μM) to the hemoglobin.

Series [2] concerns human red blood cells (RBCs) / whole blood. The experiment in a line: Oxygen dissociation curve (ODC) of RBCs / whole blood, Hemox analyzer, P50. It counts as cell-based. The settings on record: for P50 of whole blood: hemoglobin 20 μM, tested compound 120 μM, whole blood alone 26 Torr; for P50 of RBCs: RBCs 20 μM as hemoglobin tetramer, 1 h at 37° C. As for the experimental part: as §1

The subject of the next series is RBCs. The experiment in a line: Hemolysis of RBCs / blood on incubation with compound. To be noted: for Hemolysis of whole blood (P50 of whole blood column): hemoglobin 20 μM, tested compound 120 μM; for Hemolysis of diluted human blood: diluted human blood 50 μM, compound/Hb tetramer 30/1 mol/mol (1.5 mM), FIG. 9. It counts as cell-based, human. More on the design: key to Hemolysis of whole blood (P50 of whole blood column): c: does not hemolyze.

Series [3] deals with T2, hemoglobin (Homo sapiens, UniProt P68871).
T2 construct: incubated in a TBS-T solution containing purified hemoglobin (1 μg/mL)
T2 sequence (P68871 2-147 limits assumed): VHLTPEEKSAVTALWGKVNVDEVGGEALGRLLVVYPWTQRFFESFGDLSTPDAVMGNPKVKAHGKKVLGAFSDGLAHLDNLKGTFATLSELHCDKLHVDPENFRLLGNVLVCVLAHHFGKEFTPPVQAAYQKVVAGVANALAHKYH
T2 sequence (P69905 2-142 partner limits assumed): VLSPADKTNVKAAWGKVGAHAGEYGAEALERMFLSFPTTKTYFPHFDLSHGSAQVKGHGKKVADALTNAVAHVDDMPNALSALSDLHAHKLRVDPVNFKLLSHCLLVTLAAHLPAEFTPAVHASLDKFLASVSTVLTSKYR
As to the kind of experiment: Small molecule microarray (SMM) binding to hemoglobin. To be noted: hemoglobin 1 μg/mL, antibody detection. As for the experimental part: Test compounds were affixed to SMM slides with isocyanate-functionalized surfaces as described in Casalena et al., Methods in molecular biology, 2012, 803, 249-263. Pre-incubating the SMMs with albumin blocked non-specific binding of the compounds to SMMs. Compounds binding to hemoglobin were detected on the SMMs using a fluorescent dye-conjugated antibodies specific for hemoglobin. The assay was validated by confirming the binding of hemoglobin to 2,3-DPG affixed on SMMs.
Each slide contained 48 “blocks”, and each block contained approximately 100 unique surface-immobilized small molecules. Compounds were printed in duplicate, and each slide was screened in duplicate, resulting in four replicates for every test compound. SMM slides were blocked by incubating them in a TBS-T solution (Tween 20, 0.01 vol %) containing bovine serum albumin (BSA, 0.1 wt %) for 30 min. […]
Using SMM Hits-Analyzer software (Broad Institute), the measured fluorescent signal of the foreground of a given spot (F) was divided by its local background (B) resulting in a calculated F/B ratio for each spot on which the test compounds were affixed. The F/B ratios were fitted to a Cauchy distribution plot for every block on the slide, and “positive” hits were determined using a p-value threshold of 7%. […]

Series [4] concerns the target T2, hemoglobin. The experiment in a line: Hemoglobin oxygen-binding assay (oxyHb % by spectrophotometry at controlled FO2). The format is biochemical. The settings on record: allosteric effector to hemoglobin tetramer 6 to 1 (mol/mol). As for the experimental part: Test compounds (0.75 μL, 10 mM in DMSO) were added to the central area of two 384 deep well plates forming compound plates. DPBS was used as the solvent for myo-inositol hexaphosphate (IHP) and N-ethylmaleimide (NEM) (10 mM). To prevent oxidation of hemoglobin during the experiment, glucose-6-phosphate (0.4 mg/mL), glucose-6-phosphate dehydrogenase (1.0 U/mL), nicotinamide adenine dinucleotide phosphate (NADP, 0.05 mg/mL), ferredoxin (0.01 mg/mL), ferredoxin-NADP reductase (0.01 U/mL) and catalase (2×10^3 U/mL) were added to hemoglobin to produce the Hayashi reducing system, which is described in detail in Hayashi et al., Biochemica et Biophysica Acta, 1973, 310, 309-316. […]
The alteration of hemoglobin's oxygen-binding affinity by the test compounds binding to hemoglobin was evaluated in an environment where the fractional oxygen pressure (FO2) could be precisely measured and controlled. […] To confirm the allosteric effect of the test compounds, ODC of hemoglobin was measured in the presence and absence of each compound. […]
The ability of small molecules to alter the oxygen affinity of hemoglobin was determined by measuring the fraction of oxygenated hemoglobin (oxyHb %) and oxidized hemoglobin (metHb %) using spectrophotometry under three (high, medium, and low oxyHb saturation) conditions. […]

Non-standard residues stand in square brackets, D forms with d. Residues, ends and D or L forms follow the SMILES beside them. dNMeBip = CN[C@H](Cc1ccc(-c2ccccc2)cc1)C(=O)O

T1 sequence (P68871 2-147 limits assumed): as the sequence (P68871 2-147 limits assumed) above
T1 sequence (P69905 2-142 partner limits assumed): as the sequence (P69905 2-142 partner limits assumed) above

On to `CC(=O)N(C)[C@H](Cc1ccc(-c2ccccc2)cc1)C(=O)N[C@@H](Cc1c[nH]c2ccccc12)C(=O)O` [Compound 4, (S)-2-((R)-3-([1,1′-biphenyl]-4-yl)-2-(N-methylacetamido)propanamido)-3-(1H-indol-3-yl)propanoic acid] (Ac-[dNMeBip]-Trp-OH), for which the “P50 with purified hemoglobin” value in series [1] came to 20 Torr.

Regarding `Cc1cc(C)cc(C(=O)N(C)C(Cc2ccc(-c3ccccc3)cc2)C(=O)NCC(=O)O)c1` (stereo not drawn) [Compound 9, 2-(3-([1,1′-biphenyl]-4-yl)-2-(N,3,5-trimethylbenzamido)propanamido)acetic acid], in series [1], the “P50 with purified hemoglobin” value stood at 28 Torr. The “P50 of whole blood” value in series [2] turned out to be 33 Torr. For the same compound, the “Hemolysis of whole blood (P50 of whole blood column)” value (shortened to “Hemolysis of whole blood”) in the series on RBCs is reported as “c”.

Consider `Cc1cc(C)cc(C(=O)NC(Cc2ccc(-c3ccccc3)cc2)C(=O)NCC(=O)O)c1` (stereo not drawn) [Compound 8, 2-(3-([1,1′-biphenyl]-4-yl)-2-(3,5-dimethylbenzamido)propanamido)acetic acid], for which, in series [1], the “P50 with purified hemoglobin” value is 48 Torr. Moreover, the “P50 of whole blood” value in series [2] is on record as 32 Torr. Further, the “Hemolysis of whole blood” value in the series on RBCs is reported as “c”.

In the case of `N=C(N)SSC(=N)N` [formamidine disulfide, reference compound], the “P50 of RBCs” value in series [2] (allosteric effector 400 μM) came to 9 Torr.

Regarding `Cc1cc(C)cc(C(=O)N(C)[C@H](Cc2ccccc2)C(=O)N[C@@H](Cc2c[nH]c3ccccc23)C(=O)O)c1` [Compound 2, (S)-3-(1H-indol-3-yl)-2-((R)-3-phenyl-2-(N,3,5-trimethylbenzamido)propanamido)propanoic acid], the “Increase of P50 of hemoglobin, dose dependence” value in series [1] (FIG. 3, FIG. 6-7) is on record as “concentration-dependent”. In series [1], the “P50 with purified hemoglobin” value stood at 20 Torr. The “Oxygen affinity of red blood cells (RBCs)” value in series [2] (human blood, FIG. 9) is reported as “increased”. Besides, the “Hemolysis of diluted human blood” value in the series with RBCs is given as “without hemolysis”.

For the compound `O=Cc1ccc(CO)o1` [Compound 5HMF, reference compound], the “P50 of RBCs” value in series [2] (allosteric effector 2 mM) is 9 Torr.

Take `Cc1cc(C)cc(C(=O)N(C)C(Cc2ccc(-c3ccccc3)cc2)C(=O)NC(C)(C)C(=O)O)c1` (stereo not drawn) [Compound 10, 2-(3-([1,1′-biphenyl]-4-yl)-2-(N,3,5-trimethylbenzamido)propanamido)-2-methylpropanoic acid]: the “P50 with purified hemoglobin” value in series [1] is on record as 23 Torr. For the same compound, the “P50 of whole blood” value in series [2] is on record as 31 Torr. Besides, the “Hemolysis of whole blood” value with RBCs is “c”.

Regarding `O=C(O)C(COP(=O)(O)O)OP(=O)(O)O` (stereo not drawn) [2,3-DPG, 2,3-diphosphoglycerate, reference compound], the P50 of hemoglobin in series [1] (hemoglobin 20 μM tetramer, compound 200 μM, DPBS pH 7.4, 5 vol % DMSO, 37° C., hemoglobin alone 17 Torr) came out at 19±0.1 Torr. For the same compound, the “P50 of hemoglobin with 2,3-DPG” value in series [1] (hemoglobin 20 μM, 2,3-DPG 600 μM (pre-saturated), no Compound 1) is listed as 23±0.7 Torr. In addition, the “Binding of hemoglobin to compound affixed on SMMs” value on hemoglobin [3] is reported as “binding”.

Take `CCN1C(=O)C=CC1=O` [NEM, N-ethylmaleimide, reference compound]: in series [2] (allosteric effector 400 μM), the “P50 of RBCs” value came out at 8 Torr. In addition, the “Change of oxyHb %” value at hemoglobin [4] is on record as “increase”.

Turning to `Cc1cc(C)cc(NC(=O)Cc2ccc(OC(C)(C)C(=O)O)cc2)c1` [RSR-13, reference compound], the “Hemolysis of diluted human blood” value in the series with RBCs is “hemolysis”.

Take `CC(=O)N(C)[C@@H](Cc1ccccc1)C(=O)N[C@H](Cc1c[nH]c2ccccc12)C(=O)O` (stereo in doubt) [Compound 5, (R)-3-(1H-indol-3-yl)-2-((S)-2-(N-methylacetamido)-3-phenylpropanamido)propanoic acid]: in series [1], the “P50 with purified hemoglobin” value is on record as 18 Torr.

Consider `O=P(O)(O)O[C@H]1[C@H](OP(=O)(O)O)[C@@H](OP(=O)(O)O)[C@H](OP(=O)(O)O)[C@@H](OP(=O)(O)O)[C@H]1OP(=O)(O)O` [IHP, myo-inositol hexaphosphate], for which the “Change of oxyHb %” value at hemoglobin [4] is reported as “decrease”.

Source of the values: patent US20160331783A1, “BISAMIDE COMPOUNDS AS ALLOSTERIC EFFECTORS FOR REDUCING THE OXYGEN-BINDING AFFINITY OF HEMOGLOBIN” (THE GENERAL HOSPITAL CORPORATION, priority 2014, published 2016).
